# Results published in publication doi:10.1101/2025.03.25.645215v1 (biorxiv, 2025).
# Molecular target: T1, B^0AT2/SLC6A15 (eGFP-hSLC6A15) (Homo sapiens, UniProt Q9H2J7)
# T1 sequence (Q9H2J7 1-730): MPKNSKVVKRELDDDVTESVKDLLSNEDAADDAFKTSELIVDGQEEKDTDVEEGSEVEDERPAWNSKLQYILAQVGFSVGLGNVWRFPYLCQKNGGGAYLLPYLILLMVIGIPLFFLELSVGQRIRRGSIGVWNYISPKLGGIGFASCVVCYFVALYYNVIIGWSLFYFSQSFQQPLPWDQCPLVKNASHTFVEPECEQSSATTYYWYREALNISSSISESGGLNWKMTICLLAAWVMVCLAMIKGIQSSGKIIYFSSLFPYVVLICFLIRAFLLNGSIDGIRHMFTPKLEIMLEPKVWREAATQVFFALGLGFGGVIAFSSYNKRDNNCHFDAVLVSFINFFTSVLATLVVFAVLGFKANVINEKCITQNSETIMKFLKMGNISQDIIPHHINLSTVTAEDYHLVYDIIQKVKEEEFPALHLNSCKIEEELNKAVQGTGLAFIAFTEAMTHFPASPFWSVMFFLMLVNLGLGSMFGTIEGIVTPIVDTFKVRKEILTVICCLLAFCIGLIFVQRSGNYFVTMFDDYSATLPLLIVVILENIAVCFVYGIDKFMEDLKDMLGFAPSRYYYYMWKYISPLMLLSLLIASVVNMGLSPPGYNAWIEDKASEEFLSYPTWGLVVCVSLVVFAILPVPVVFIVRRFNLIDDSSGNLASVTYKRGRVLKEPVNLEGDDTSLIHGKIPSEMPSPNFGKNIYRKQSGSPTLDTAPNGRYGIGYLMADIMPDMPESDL
# Assay: cell-based
# Set-up: species or system HEK293 eGFP-hSLC6A15
# Settings: not given
row,IC50 [nM],SMILES
1,1200 ± 100,CC1(C)CC(=O)C2=C(C1)Nc1ccccc1N(C(=O)c1ccccc1)C2c1ccccc1 (stereo not shown) [11a]
2,> 80000,CCOc1cc(C2C3=C(CC(C)(C)CC3=O)Nc3ccccc3N2C(=O)c2ccccc2)ccc1OCc1ccc(Cl)cc1 (stereo not shown) [11aa]
3,11300 ± 14900,COc1cc(C2C3=C(CC(C)(C)CC3=O)Nc3ccccc3N2C(=O)c2ccccc2)cc(OC)c1OC (stereo not shown) [11ab]
4,2000 ± 200,CC1(C)CC(=O)C2=C(C1)Nc1ccccc1N(C(=O)c1ccccc1)C2c1ccc(F)cc1 (stereo not shown) [11b]
5,900 ± 100,CC1(C)CC(=O)C2=C(C1)Nc1ccccc1N(C(=O)c1ccccc1)C2c1ccc(Cl)cc1 (stereo not shown) [11c]
6,740 ± 70,CC1(C)CC(=O)C2=C(C1)Nc1ccccc1N(C(=O)c1ccccc1)C2c1ccc(Br)cc1 (stereo not shown) [11d]
7,730 ± 40,CC1(C)CC(=O)C2=C(C1)Nc1ccccc1N(C(=O)c1ccccc1)C2c1ccc(C#N)cc1 (stereo not shown) [11e]
8,400 ± 30,COc1ccc(C2C3=C(CC(C)(C)CC3=O)Nc3ccccc3N2C(=O)c2ccccc2)cc1 (stereo not shown) [11f]
9,500 ± 50,CCOc1ccc(C2C3=C(CC(C)(C)CC3=O)Nc3ccccc3N2C(=O)c2ccccc2)cc1 (stereo not shown) [11g]
10,1100 ± 100,CC(C)Oc1ccc(C2C3=C(CC(C)(C)CC3=O)Nc3ccccc3N2C(=O)c2ccccc2)cc1 (stereo not shown) [11h]
11,580 ± 30,CCCCOc1ccc(C2C3=C(CC(C)(C)CC3=O)Nc3ccccc3N2C(=O)c2ccccc2)cc1 (stereo not shown) [11i]
12,1200 ± 100,CCCCCOc1ccc(C2C3=C(CC(C)(C)CC3=O)Nc3ccccc3N2C(=O)c2ccccc2)cc1 (stereo not shown) [11j]
13,2000 ± 200,CC1(C)CC(=O)C2=C(C1)Nc1ccccc1N(C(=O)c1ccccc1)C2c1ccc(C(F)(F)F)cc1 (stereo not shown) [11k]
14,10600 ± 1700,CN(C)c1ccc(C2C3=C(CC(C)(C)CC3=O)Nc3ccccc3N2C(=O)c2ccccc2)cc1 (stereo not shown) [11l]
15,1800 ± 300,COC(=O)c1ccc(C2C3=C(CC(C)(C)CC3=O)Nc3ccccc3N2C(=O)c2ccccc2)cc1 (stereo not shown) [11m]
16,22900 ± 14700,CC1(C)CC(=O)C2=C(C1)Nc1ccccc1N(C(=O)c1ccccc1)C2c1cccc(F)c1 (stereo not shown) [11o]
17,3200 ± 500,COc1cccc(C2C3=C(CC(C)(C)CC3=O)Nc3ccccc3N2C(=O)c2ccccc2)c1 (stereo not shown) [11p]
18,720 ± 70,CCCOc1cccc(C2C3=C(CC(C)(C)CC3=O)Nc3ccccc3N2C(=O)c2ccccc2)c1 (stereo not shown) [11q]
19,640 ± 70,CC(=O)Oc1cccc(C2C3=C(CC(C)(C)CC3=O)Nc3ccccc3N2C(=O)c2ccccc2)c1 (stereo not shown) [11r]
20,19900 ± 8900,CC1(C)CC(=O)C2=C(C1)Nc1ccccc1N(C(=O)c1ccccc1)C2c1ccccc1F (stereo not shown) [11s]
21,> 40000,CC1(C)CC(=O)C2=C(C1)Nc1ccccc1N(C(=O)c1ccccc1)C2c1ccccc1Cl (stereo not shown) [11t]
22,> 60000,COc1ccccc1C1C2=C(CC(C)(C)CC2=O)Nc2ccccc2N1C(=O)c1ccccc1 (stereo not shown) [11u]
23,7100 ± 2300,COc1ccc(C2C3=C(CC(C)(C)CC3=O)Nc3ccccc3N2C(=O)c2ccccc2)cc1OC (stereo not shown) [11w]
24,1100 ± 100,CCCOc1ccc(C2C3=C(CC(C)(C)CC3=O)Nc3ccccc3N2C(=O)c2ccccc2)cc1OC (stereo not shown) [11y]
25,2300 ± 400,CC1(C)CC(=O)C2=C(C1)Nc1ccccc1N(C(=O)c1ccccc1)C2c1ccc(Cl)c(Cl)c1 (stereo not shown) [11z]

# Same assay, conditions: read-out: B^0AT2 IC50; inhibitor
row,IC50 [nM],SMILES
1,> 80000,COc1c(Cl)cc(Cl)cc1C1C2=C(CC(C)(C)CC2=O)Nc2ccccc2N1C(=O)c1ccccc1 (stereo not shown) [11ac]

# Molecular target: T1, B^0AT2/SLC6A15 (eGFP-hSLC6A15)
# Assay: cell-based
# Set-up: species or system HEK293 eGFP-hSLC6A15
# Settings: not given
# Remark: another data set of the same source
row,IC50 [nM],SMILES
1,1100 ± 100,O=C1CC(c2ccccc2)CC2=C1C(c1ccccc1)N(C(=O)c1ccccc1)c1ccccc1N2 (stereo not shown) [14a]
2,1000 ± 100,COc1ccc(C2CC(=O)C3=C(C2)Nc2ccccc2N(C(=O)c2ccccc2)C3c2ccccc2)cc1 (stereo not shown) [14b]
3,1200 ± 200,COc1ccc(C2CC(=O)C3=C(C2)Nc2ccccc2N(C(=O)c2ccccc2)C3c2ccc(OC)cc2)cc1 (stereo not shown) [14e]
4,2100 ± 500,COc1ccc(C2C3=C(CC(c4ccc(C)cc4)CC3=O)Nc3ccccc3N2C(=O)c2ccccc2)cc1OC (stereo not shown) [14g]
5,> 80000,COc1cccc(C2C3=C(CC(c4ccccc4)CC3=O)Nc3ccccc3N2C(=O)c2ccccc2)c1 (stereo not shown) [14h]
6,> 80000,COc1ccc(C2CC(=O)C3=C(C2)Nc2ccccc2N(C(=O)c2ccccc2)C3c2cccc(OC)c2)cc1 (stereo not shown) [14i]
7,> 80000,Cc1ccc(C2C3=C(CC(c4ccc(Cl)cc4)CC3=O)Nc3ccccc3N2C(=O)c2ccccc2)cc1 (stereo not shown) [14j]
8,> 80000,Cc1ccc(C2C3=C(CC(c4cccc(Cl)c4)CC3=O)Nc3ccccc3N2C(=O)c2ccccc2)cc1 (stereo not shown) [14k]
9,> 80000,Cc1ccc(C2C3=C(CC(c4ccccc4F)CC3=O)Nc3ccccc3N2C(=O)c2ccccc2)cc1 (stereo not shown) [14l]
10,700 ± 50,CC1CC(=O)C2=C(C1)Nc1ccccc1N(C(=O)c1ccccc1)C2c1cc(F)cc(F)c1 (stereo not shown) [14m]

# Molecular target: T1, B^0AT2/SLC6A15 (eGFP-hSLC6A15)
# Assay: cell-based
# Set-up: species or system HEK293 eGFP-hSLC6A15
# Settings: not given
# Remark: another data set of the same source
row,IC50 [nM],SMILES
1,> 80000,COc1cc(C2Nc3ccccc3NC3=C2C(=O)CCC3)ccc1O (stereo not shown) [13a]
2,> 80000,CC1(C)CC(=O)C2=C(C1)Nc1ccccc1NC2c1ccccc1 (stereo not shown) [13c]
3,> 80000,CC1(C)CC(=O)C2=C(C1)Nc1ccccc1N(Cc1ccccc1)C2c1ccccc1 (stereo not shown) [13d]
4,1400 ± 100,CCCCOc1ccc(C2C3=C(CC(C)(C)CC3=O)Nc3ccccc3N2C(=O)c2ccccc2F)cc1 (stereo not shown) [13e]
5,9000 ± 11000,COc1ccc(C2C3=C(CC(C)CC3=O)Nc3ccccc3N2C(=O)c2ccc(F)cc2)cc1 (stereo not shown) [13f]
6,> 80000,COc1ccc(C2C3=C(CC(C)(C)CC3=O)Nc3ccccc3N2C(=O)c2ccc(Cl)cc2)cc1OC (stereo not shown) [13g]
7,> 80000,O=C1CCCC2=C1C(c1ccccc1)N(C(=O)c1ccc(Cl)cc1)c1ccccc1N2 (stereo not shown) [13h]
8,> 80000,Cc1ccc(C(=O)N2c3ccccc3NC3=C(C(=O)CCC3)C2c2ccccc2)cc1 (stereo not shown) [13i]
9,> 80000,COc1ccc(C(=O)N2c3ccccc3NC3=C(C(=O)CCC3)C2c2ccccc2)cc1 (stereo not shown) [13j]
10,> 80000,O=C1CCCC2=C1C(c1ccccc1)N(C(=O)C1CCCCC1)c1ccccc1N2 (stereo not shown) [13k]
11,> 55000,O=C1CCCC2=C1C(c1ccccc1)N(C(=O)c1ccco1)c1ccccc1N2 (stereo not shown) [13l]
12,> 80000,O=C1CCCC2=C1C(c1ccccc1)N(C(=O)c1ccc3ccccc3c1)c1ccccc1N2 (stereo not shown) [13m]

# Same assay, conditions: read-out: B^0AT2 IC50; inhibitor
row,IC50 [nM],SMILES
1,> 80000,CCOc1cc(C2C3=C(CCCC3=O)Nc3ccccc3N2C(=O)CC)ccc1O (stereo not shown) [13b]

# Molecular target: T1, B^0AT2/SLC6A15 (eGFP-hSLC6A15)
# Assay: cell-based
# Set-up: species or system HEK293 eGFP-hSLC6A15
# Settings: not given
# Remark: another data set of the same source
row,IC50 [nM],SMILES
1,1600 ± 300,O=C1CCCC2=C1C(c1cccnc1)N(C(=O)c1ccccc1)c1ccccc1N2 (stereo not shown) [12a]
2,5100 ± 2000,O=C1CCCC2=C1C(c1ccco1)N(C(=O)c1ccccc1)c1ccccc1N2 (stereo not shown) [12b]
3,1900 ± 400,CC1(C)CC(=O)C2=C(C1)Nc1ccccc1N(C(=O)c1ccccc1)C2c1cccnc1 (stereo not shown) [12c]
4,3900 ± 800,CC1(C)CC(=O)C2=C(C1)Nc1ccccc1N(C(=O)c1ccccc1)C2c1ccccn1 (stereo not shown) [12d]
5,1300 ± 100,CC1(C)CC(=O)C2=C(C1)Nc1ccccc1N(C(=O)c1ccccc1)C2c1ccco1 (stereo not shown) [12e]
6,2600 ± 200,Cc1ccc(C2C3=C(CC(C)(C)CC3=O)Nc3ccccc3N2C(=O)c2ccccc2)o1 (stereo not shown) [12f]
7,> 80000,Cn1cccc1C1C2=C(CC(C)(C)CC2=O)Nc2ccccc2N1C(=O)c1ccccc1 (stereo not shown) [12g]
8,> 30000,CC1(C)CC(=O)C2=C(C1)Nc1ccccc1N(C(=O)c1ccccc1)C2c1c[nH]c2ccccc12 (stereo not shown) [12h]

# Same assay, conditions: read-out: B^0AT2 IC50; inhibitor
row,IC50 [nM],SMILES
1,> 80000,CC1(C)CC(=O)C2=C(C1)Nc1ccccc1N(C(=O)c1ccccc1)C2c1ccc(-c2ccc(Br)cc2)o1 (stereo not shown) [12i]
